The values below come from patent US10154990B2, “Medicaments for the treatment or prevention of fibrotic diseases” (Boehringer Ingelheim International GmbH, priority 2004, dated 2018).

Counter-ions that a name gives are not always drawn.

Regarding `COC(=O)c1ccc2c(c1)NC(=O)/C2=C\Nc1ccc(N(C)C(=O)CN2CCN(C)CC2)cc1` [(cq), 3-Z-[1-(4-(N-((4-methyl-piperazin-1-yl)-methylcarbonyl)-N-methyl-amino)-anilino)-methylene]-6-methoxycarbonyl-2-indolinone], the melting point fell in the range of 203 to 207 °C.
Under `CCNC(=O)c1ccc2c(c1)NC(=O)/C2=C(\Nc1ccc(C(=O)N2CCN(C)CC2)cc1)c1ccccc1` [(cf), 3-Z-[1-(4-((4-methyl-piperazin-1-yl)-carbonyl)-anilino)-1-phenyl-methylene]-6-ethylcarbamoyl-2-indolinone] stands 288 to 292 °C; under `COC(=O)c1ccc2c(c1)NC(=O)/C2=C(\Nc1ccc(NC(=O)CN2CCN(C)CC2)c(C)c1C)c1ccccc1` [(ae), 3-Z-[1-(2,3-dimethyl-4-(N-((4-methyl-piperazin-1-yl)-methylcarbonyl)-amino)-anilino)-1-phenyl-methylene]-6-methoxycarbonyl-2-indolinone], 254 to 257 °C.
Then `CN1CCN(Cc2ccc(N/C(=C3\C(=O)Nc4cc(C(=O)O)ccc43)c3ccccc3)cc2)CC1` [(am), 3-Z-[1-(4-(4-methylpiperazin-1-yl-methyl)-anilino)-1-phenyl-methylene]-6-carboxy-2-indolinone], with 275 °C; and `CCNC(=O)c1ccc2c(c1)NC(=O)/C2=C(\Nc1ccc(N(CCN(C)C)S(C)(=O)=O)cc1)c1ccccc1` [(bw), 3-Z-[1-(4-(N-(2-dimethylamino-ethyl)-N-methylsulphonyl-amino)-anilino)-1-phenyl-methylene]-6-ethylcarbamoyl-2-indolinone], with 213 to 217 °C.
Then `COC(=O)c1ccc2c(c1)NC(=O)/C2=C\Nc1ccc(CN(C)C)cc1` [(cp), 3-Z-[1-(4-dimethylaminomethyl-anilino)-methylene]-6-methoxycarbonyl-2-indolinone], with 234 to 238 °C; and `CCNC(=O)c1ccc2c(c1)NC(=O)/C2=C(\Nc1ccc(CN(C)C)cc1)c1ccccc1` [(bz), 3-Z-[1-(4-dimethylaminomethyl-anilino)-1-phenyl-methylene]-6-ethylcarbamoyl-2-indolinone], with 341 to 344 °C.
As to `COC(=O)c1ccc2c(c1)NC(=O)/C2=C(\Nc1ccc(N(C)C(=O)CC2CCN(C)CC2)cc1)c1ccccc1` [(ad), 3-Z-[1-(4-(N-((1-methyl-piperidin-4-yl)-methylcarbonyl)-N-methyl-amino)-anilino)-1-phenyl-methylene]-6-methoxycarbonyl-2-indolinone], the melting point fell in the range of 190 to 193 °C.
Then `COC(=O)c1ccc2c(c1)NC(=O)/C2=C(\Nc1ccc(N(C)C(=O)CN(C)C)c(OC)c1)c1ccccc1` [(w), 3-Z-[1-(3-methoxy-4-(N-dimethylaminomethylcarbonyl-N-methyl-amino)-anilino)-1-phenyl-methylene]-6-methoxycarbonyl-2-indolinone], with 160 to 163 °C.
Under `CCNC(=O)c1ccc2c(c1)NC(=O)/C2=C(\Nc1ccc(C(=O)N2CCN(CC)CC2)cc1)c1ccccc1` [(ck), 3-Z-[1-(4-((4-ethyl-piperazin-1-yl)-carbonyl)-anilino)-1-phenyl-methylene]-6-ethylcarbamoyl-2-indolinone] stands 127 to 130 °C.
Under `CCNC(=O)c1ccc2c(c1)NC(=O)/C2=C\Nc1ccc(N(CCCN(C)C)C(C)=O)cc1` [(cu), 3-Z-[1-(4-(N-(3-dimethylamino-propyl)-N-acetyl-amino)-anilino)-methylene]-6-ethylcarbamoyl-2-indolinone] stands 130 °C.
`COC(=O)c1ccc2c(c1)NC(=O)/C2=C(\Nc1ccc(N(C)C(=O)CN)cc1)c1ccccc1` [(x), 3-Z-[1-(4-(N-aminomethylcarbonyl-N-methyl-amino)-anilino)-1-phenyl-methylene]-6-methoxycarbonyl-2-indolinone] returned a melting point of 221 °C.
On to `CCNC(=O)c1ccc2c(c1)NC(=O)/C2=C\Nc1ccc(CN2CCCCC2)cc1` [(ct), 3-Z-[1-(4-(piperidin-1-yl-methyl)-anilino)-methylene]-6-ethylcarbamoyl-2-indolinone], for which the melting point was 245 to 248 °C.
Then `CCN(CC)C(=O)c1ccc2c(c1)NC(=O)/C2=C(\Nc1ccc(N(C)C(=O)CN2CCN(C)CC2)cc1)c1ccccc1` [(ci), 3-Z-[1-(4-(N-((4-methyl-piperazin-1-yl)-methylcarbonyl)-N-methyl-amino)-anilino)-1-phenyl-methylene]-6-diethylcarbamoyl-2-indolinone], with 195 to 198 °C; and `COC(=O)c1ccc2c(c1)NC(=O)/C2=C(\Nc1ccc(CCN(C)C)cc1)c1cccc(CCC(=O)O)c1` [(ax), 3-Z-[1-(4-(2-dimethylamino-ethyl)-anilino)-1-(3-(2-carboxy-ethyl)-phenyl)-methylene]-6-methoxycarbonyl-2-indolinone], with 248 to 255 °C; and `CCNC(=O)c1ccc2c(c1)NC(=O)/C2=C(\Nc1ccc(OCCN(C)C)cc1)c1ccccc1` [(bu), 3-Z-[1-(4-(2-dimethylamino-ethoxy)-anilino)-1-phenyl-methylene]-6-ethylcarbamoyl-2-indolinone], with 308 to 311 °C.
Then `NC(CCO)(CCO)c1ccc(N/C(=C2\C(=O)Nc3cc(C(=O)O)ccc32)c2ccccc2)cc1` (as salt: Na) [(aq), 3-Z-[1-(4-(di-(2-hydroxy-ethyl)-amino-methyl)-anilino)-1-phenyl-methylene]-6-carboxy-2-indolinone], with 256 to 257 °C.
The molecule `COC(=O)c1ccc2c(c1)NC(=O)/C2=C(\Nc1ccc(N(C)C(=O)C(N)(CCO)CCO)cc1)c1ccccc1` [(z), 3-Z-[1-(4-(N-(di-(2-hydroxy-ethyl)-amino-methylcarbonyl)-N-methyl-amino)-anilino)-1-phenyl-methylene]-6-methoxycarbonyl-2-indolinone] returned a melting point of 199 to 202 °C.
Then `CCNC(=O)c1ccc2c(c1)NC(=O)/C2=C(\Nc1ccc(C(=O)N2C[C@@H](C)N[C@@H](C)C2)cc1)c1ccccc1` [(cm), 3-Z-[1-(4-((cis-3,5-dimethyl-piperazin-1-yl)-carbonyl)-anilino)-1-phenyl-methylene]-6-ethylcarbamoyl-2-indolinone], with 217 to 220 °C; and `CCNC(=O)c1ccc2c(c1)NC(=O)/C2=C(\Nc1ccc(N(CCCN(C)C)C(C)=O)cc1)c1ccccc1` [(cb), 3-Z-[1-(4-(N-(3-dimethylamino-propyl)-N-acetyl-amino)-anilino)-1-phenyl-methylene]-6-ethylcarbamoyl-2-indolinone], with 198 to 202 °C.
For `COC(=O)c1ccc2c(c1)NC(=O)/C2=C(\Nc1ccc(N(C)C(=O)N2CCN(C)CC2)cc1)c1ccccc1` [(ag), 3-Z-[1-(4-(N-((4-methyl-piperazin-1-yl)-carbonyl)-N-methyl-amino)-anilino)-1-phenyl-methylene]-6-methoxycarbonyl-2-indolinone], the melting point is 205 to 208 °C.
Under `CCNC(=O)c1ccc2c(c1)NC(=O)/C2=C(\Nc1ccc(N(C)C(=O)CN2CCN(C)CC2)cc1)c1ccccc1` [(bv), 3-Z-[1-(4-(N-((4-methyl-piperazin-1-yl)-methylcarbonyl)-N-methyl-amino)-anilino)-1-phenyl-methylene]-6-ethylcarbamoyl-2-indolinone] stands 279 to 283 °C.
Then `CN(C(=O)CN1CCOCC1)c1ccc(N/C(=C2\C(=O)Nc3cc(C(=O)O)ccc32)c2ccccc2)cc1` [(as), 3-Z-[1-(4-(N-(morpholin-4-yl-methylcarbonyl)-N-methyl-amino)-anilino)-1-phenyl-methylene]-6-carboxy-2-indolinone], with 237 to 238 °C; and `CN(C)CCN(C)CC(=O)N(C)c1ccc(N/C(=C2\C(=O)Nc3cc(C(=O)O)ccc32)c2ccccc2)cc1` [(at), 3-Z-[1-(4-(N—(N-(2-dimethylamino-ethyl)-N-methyl-aminomethylcarbonyl)-N-methyl-amino)-anilino)-1-phenyl-methylene]-6-carboxy-2-indolinone], with 238 to 240 °C.
`CN(C)CCN(c1ccc(N/C(=C2\C(=O)Nc3cc(C(=O)O)ccc32)c2ccccc2)cc1)S(C)(=O)=O` [(ap), 3-Z-[1-(4-(N-(2-dimethylamino-ethyl)-N-methylsulphonyl-amino)-anilino)-1-phenyl-methylene]-6-carboxy-2-indolinone] came in with a melting point of 280 °C.
Turning to `CCNC(=O)c1ccc2c(c1)NC(=O)/C2=C(\Nc1ccc(N(CCCN(C)C)S(C)(=O)=O)cc1)c1ccccc1` [(cn), 3-Z-[1-(4-(N-(3-dimethylamino-propyl)-N-methylsulphonyl-amino)-anilino)-1-phenyl-methylene]-6-ethylcarbamoyl-2-indolinone], the melting point lay in the range of 171 to 175 °C.
`CCNC(=O)c1ccc2c(c1)NC(=O)/C2=C(\Nc1ccc(N(C)C(=O)CN(C)C)cc1)c1ccccc1` [(by), 3-Z-[1-(4-(N-dimethylaminomethylcarbonyl-N-methyl-amino)-anilino)-1-phenyl-methylene]-6-ethylcarbamoyl-2-indolinone]: the melting point is 130 to 134 °C.
Under `O=C1Nc2cc(C(=O)O)ccc2/C1=C(/Nc1ccc(CN2CCOCC2)cc1)c1ccccc1` [(ao), 3-Z-[1-(4-(morpholin-4-yl-methyl)-anilino)-1-phenyl-methylene]-6-carboxy-2-indolinone] stands 335 °C.
`COC(=O)c1ccc2c(c1)NC(=O)/C2=C(\Nc1ccc(N(C)C(=O)NCCCN(C)C)cc1)c1ccccc1` [(ai), 3-Z-[1-(4-(N-((3-dimethylamino-propyl)-aminocarbonyl)-N-methyl-amino)-anilino)-1-phenyl-methylene]-6-methoxycarbonyl-2-indolinone] yielded a melting point of 166 to 170 °C.
As to `COC(=O)c1ccc2c(c1)NC(=O)/C2=C(\Nc1ccc(CN(C)C)cc1)c1ccc(CCC(=O)O)cc1` [(az), 3-Z-[1-(4-dimethylaminomethyl-anilino)-1-(4-(2-carboxy-ethyl)-phenyl)-methylene]-6-methoxycarbonyl-2-indolinone], the melting point was in the range of 190 to 195 °C.
